Measurements published in ChEMBL document CHEMBL1955774, “Radiosynthesis of [11C]BBAC and [11C]BBPC as potential PET tracers for orexin2 receptors” (Bioorg Med Chem Lett, 2012).

Tests used:
Brain [1] = test: Drug uptake in anesthetized rhesus monkey brain at 1.5 ug measured for 122 mins by PET analysis; format: ADME, tissue-based, Macaca mulatta; conditions: in vivo
[2] = Partition coefficient, log P of the compound by shake flask method; format: physicochemical; conditions: octanol/water
Brain [3] = test: Drug uptake in anesthetized rhesus monkey brain at 1.7 ug measured for 122 mins by PET analysis; format: ADME, tissue-based, Macaca mulatta; conditions: in vivo

Drug uptake (Brain [1]) | logP [2] | Drug uptake (Brain [3]) | Structure (SMILES)
Not Active | 3.4 |  | [11CH3]n1c(SCC(=O)N2CCC[C@H]2C(=O)Nc2ccccc2-c2ccccc2)nc2ccccc21
 | 2.8 | Not Active | [11CH3]n1c(CCC(=O)N2CCC[C@H]2C(=O)Nc2ccccc2-c2ccccc2)nc2ccccc21
